Reference: BindingDB's records for doi:10.1021/bi030031h (Medical College of Ohio, 2003)

The compounds below were run against T1, Glycine--tRNA ligase (Bombyx mori, UniProt Q04451) (assay: In Vitro Enzyme Activity Assay). Details: pH 7.5; 25 °C.
T1 sequence (Q04451 whole entry): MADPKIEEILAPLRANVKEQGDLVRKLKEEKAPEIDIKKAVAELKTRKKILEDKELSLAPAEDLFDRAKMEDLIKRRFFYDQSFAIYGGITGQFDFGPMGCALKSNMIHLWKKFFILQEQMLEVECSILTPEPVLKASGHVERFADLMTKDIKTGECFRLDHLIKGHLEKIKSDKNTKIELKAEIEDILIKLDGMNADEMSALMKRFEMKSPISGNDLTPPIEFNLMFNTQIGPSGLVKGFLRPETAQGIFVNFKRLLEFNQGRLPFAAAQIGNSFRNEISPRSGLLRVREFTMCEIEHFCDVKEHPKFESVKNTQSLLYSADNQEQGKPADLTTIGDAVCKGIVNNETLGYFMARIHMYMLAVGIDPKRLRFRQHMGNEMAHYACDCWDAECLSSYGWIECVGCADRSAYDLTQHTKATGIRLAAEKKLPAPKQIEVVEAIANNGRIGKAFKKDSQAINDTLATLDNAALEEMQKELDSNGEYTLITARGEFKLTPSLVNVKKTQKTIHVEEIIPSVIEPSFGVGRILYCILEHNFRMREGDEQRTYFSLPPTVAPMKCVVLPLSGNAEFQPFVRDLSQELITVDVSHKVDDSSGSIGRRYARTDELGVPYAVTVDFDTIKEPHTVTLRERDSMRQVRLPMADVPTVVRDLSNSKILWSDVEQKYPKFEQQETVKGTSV
Description: Aminoacyl-tRNA synthetase assays were measuring the incorporation of [14C] amino acid into tRNA.

`Nc1ncnc2c1ncn2[C@@H]1O[C@H](COP(=O)(O)O)[C@@H](O)[C@H]1O` [adenosine 5 -monophosphate] and `Nc1ncnc2c1ncn2[C@@H]1O[C@H](COP(=O)(O)CP(=O)(O)O)[C@@H](O)[C@H]1O` [alpha, beta-methyleneadenosine 5 -diphosphate] are within 1.5-fold of each other in IC50: 800 µM for the first, 600 µM for the second.

Going from `Nc1ncnc2c1ncn2[C@@H]1O[C@H](COP(=O)(O)OP(=O)(O)CP(=O)(O)O)[C@@H](O)[C@H]1O` [adenylylmethylenediphosphonate] to `Nc1ncnc2c1ncn2[C@@H]1O[C@H](COP(=O)(O)OP(=O)(O)OP(=O)(O)O)[C@@H](O)[C@H]1O`, the IC50 rises from 10 µM to 100 µM (10-fold). The first is the more potent here.

Compared with `Nc1ncnc2c1ncn2[C@@H]1O[C@H](COP(=O)(O)OP(=O)(O)NP(=O)(O)O)[C@@H](O)[C@H]1O` [AMP.P[NH]P], `NCC(=O)NS(=O)(=O)OC[C@H]1O[C@@H](n2cnc3c(N)ncnc32)[C@H](O)[C@@H]1O` [5-O-[N-(L-glycyl)sulfamoyl]adenosine] is 50-fold lower in IC50: 100 µM for the first, 2 µM for the second.

`Nc1ncnc2c1ncn2[C@@H]1O[C@H](COP(=O)(O)O)[C@@H](O)[C@H]1O` [adenosine 5 -monophosphate] and `Nc1ncnc2c1ncn2[C@@H]1O[C@H](COP(=O)(O)CP(=O)(O)O)[C@@H](O)[C@H]1O` [alpha, beta-methyleneadenosine 5 -diphosphate] are within 1.5-fold of each other in Ki: 80 µM for the first, 60 µM for the second.

Going from `Nc1ncnc2c1ncn2[C@@H]1O[C@H](COP(=O)(O)OP(=O)(O)CP(=O)(O)O)[C@@H](O)[C@H]1O` [adenylylmethylenediphosphonate] to `Nc1ncnc2c1ncn2[C@@H]1O[C@H](COP(=O)(O)OP(=O)(O)OP(=O)(O)O)[C@@H](O)[C@H]1O`, the Ki rises from 0.8 µM to 13 µM (16-fold).

Going from `Nc1ncnc2c1ncn2[C@@H]1O[C@H](COP(=O)(O)OP(=O)(O)NP(=O)(O)O)[C@@H](O)[C@H]1O` [AMP.P[NH]P] to `NCC(=O)NS(=O)(=O)OC[C@H]1O[C@@H](n2cnc3c(N)ncnc32)[C@H](O)[C@@H]1O` [5-O-[N-(L-glycyl)sulfamoyl]adenosine], the Ki falls from 20 µM to 0.05 µM (400-fold).

`NCC(=O)NS(=O)(=O)OC[C@H]1O[C@@H](n2cnc3c(N)ncnc32)[C@H](O)[C@@H]1O` [5-O-[N-(L-glycyl)sulfamoyl]adenosine] showed a Kd of 0.27 µM.
